Consider 6 compounds from article PMC13022235 (Nature Communications, 2026).

Where a chain is given by its changes, count along the chain named. “Also recorded” adds a separate entry of the source.

In data set [1] the test system is chronic constriction injury (CCI) mice. Briefly: CCI model, cold allodynia. Format: in vivo, mouse. The note with it: for reduction of cold allodynia vs vehicle: acetone.
Data set [2] relates to male C57BL/6 J mice. The data set is described as follows: Conditioned place preference. Format: in vivo, mouse.
In data set [3] the target is T1, hGlyT2^D633E (Homo sapiens, UniProt Q9Y345, D633E).
T1 sequence (Q9Y345 1-797 D633E): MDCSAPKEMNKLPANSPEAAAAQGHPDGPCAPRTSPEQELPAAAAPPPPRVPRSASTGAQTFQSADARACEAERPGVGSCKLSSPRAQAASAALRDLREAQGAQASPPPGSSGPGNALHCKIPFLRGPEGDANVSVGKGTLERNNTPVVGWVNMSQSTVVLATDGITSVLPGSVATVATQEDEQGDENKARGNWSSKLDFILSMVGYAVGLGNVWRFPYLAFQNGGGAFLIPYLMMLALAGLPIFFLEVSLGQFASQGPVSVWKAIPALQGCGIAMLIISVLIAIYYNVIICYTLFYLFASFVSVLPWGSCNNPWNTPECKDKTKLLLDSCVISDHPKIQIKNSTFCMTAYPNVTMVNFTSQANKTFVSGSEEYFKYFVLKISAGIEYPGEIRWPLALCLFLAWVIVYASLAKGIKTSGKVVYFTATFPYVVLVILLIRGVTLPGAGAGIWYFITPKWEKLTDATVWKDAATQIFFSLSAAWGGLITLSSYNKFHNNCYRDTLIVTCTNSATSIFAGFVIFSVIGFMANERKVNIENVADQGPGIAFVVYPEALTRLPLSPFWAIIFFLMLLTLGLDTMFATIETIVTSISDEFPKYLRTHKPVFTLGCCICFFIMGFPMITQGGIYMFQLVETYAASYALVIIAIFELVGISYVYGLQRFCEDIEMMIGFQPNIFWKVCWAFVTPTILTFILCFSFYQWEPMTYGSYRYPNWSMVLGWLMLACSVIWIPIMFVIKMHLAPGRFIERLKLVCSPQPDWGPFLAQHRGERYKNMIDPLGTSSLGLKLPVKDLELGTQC
Format: cell-based. The note with it: D633E mutation.

The target of data set [4] is T2, hGlyT2^W215F (Homo sapiens, UniProt Q9Y345, W215F).
T2 sequence (Q9Y345 1-797 W215F): T1 sequence (Q9Y345 1-797 D633E) with W215F, E633D
The data set is described as follows: Reversibility from inhibition. Format: cell-based.

Data set [5] deals with T2, hGlyT2^W215F. Format: cell-based.
For data set [6], the target named is T3, hGlyT2^WT (Homo sapiens, UniProt Q9Y345).
T3 sequence (Q9Y345 1-797): T1 sequence (Q9Y345 1-797 D633E) with E633D
The data set is described as follows: Reversibility from inhibition. The class given is cell-based.

The subject of data set [7] is mice. Particulars: cited from earlier work.
The test system of data set [8] is naïve mice. Briefly: Accelerating rotarod, motor coordination. The class given is in vivo, mouse. (In general: The rotarod test checks motor coordination on a turning rod.)
The nature of data set [9]: PK Study 2: in-life plasma and CNS drug exposure after 50 mg/kg i.p. The note with it: 30 min. Format: in vivo, male C57BL/6 mice.
The target in data set [10] is T3, hGlyT2^WT. The class given is cell-based. Particulars: glycine dose-responses with RPI-GLYT2-82.
Data set [11] has as its system naïve, uninjured mice. Briefly: Whole-body plethysmography. The class given is in vivo, mouse.
Data set [12] addresses T4, hGlyT1^WT (Homo sapiens, UniProt P48067).
T4 sequence (P48067 1-706): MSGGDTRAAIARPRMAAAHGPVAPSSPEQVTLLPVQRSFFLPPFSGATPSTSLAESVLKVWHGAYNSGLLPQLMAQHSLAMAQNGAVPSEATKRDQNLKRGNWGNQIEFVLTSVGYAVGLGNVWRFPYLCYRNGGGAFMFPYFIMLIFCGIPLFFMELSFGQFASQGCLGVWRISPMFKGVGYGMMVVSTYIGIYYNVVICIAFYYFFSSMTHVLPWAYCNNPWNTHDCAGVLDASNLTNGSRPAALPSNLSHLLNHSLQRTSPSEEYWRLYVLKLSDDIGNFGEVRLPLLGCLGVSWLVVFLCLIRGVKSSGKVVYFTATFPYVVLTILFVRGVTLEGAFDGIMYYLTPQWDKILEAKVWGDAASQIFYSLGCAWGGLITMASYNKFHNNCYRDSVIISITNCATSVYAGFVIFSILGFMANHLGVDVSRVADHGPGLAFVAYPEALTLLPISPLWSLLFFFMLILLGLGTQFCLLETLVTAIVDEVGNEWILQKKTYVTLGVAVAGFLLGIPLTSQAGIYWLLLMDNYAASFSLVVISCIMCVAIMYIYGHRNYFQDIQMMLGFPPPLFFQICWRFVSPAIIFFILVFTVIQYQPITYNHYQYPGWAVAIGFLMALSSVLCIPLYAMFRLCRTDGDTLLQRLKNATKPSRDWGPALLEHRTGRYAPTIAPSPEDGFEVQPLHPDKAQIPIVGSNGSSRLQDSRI
Briefly: Two-electrode voltage clamp, GlyT1 selectivity test in oocytes. The class given is cell-based. Particulars: 10 µM. (In general: In two-electrode clamp one electrode senses voltage and the other passes current.)

In data set [13] the test system is chronic constriction injury (CCI) mice. Briefly: CCI model, mechanical allodynia. Format: in vivo, mouse.
Data set [14] deals with hDAT (Homo sapiens, UniProt Q01959). The data set is described as follows: Cerep binding assay, displacement of 3H-BTCP. Particulars: 10 μM.
hDAT, sequence (Q01959 whole entry): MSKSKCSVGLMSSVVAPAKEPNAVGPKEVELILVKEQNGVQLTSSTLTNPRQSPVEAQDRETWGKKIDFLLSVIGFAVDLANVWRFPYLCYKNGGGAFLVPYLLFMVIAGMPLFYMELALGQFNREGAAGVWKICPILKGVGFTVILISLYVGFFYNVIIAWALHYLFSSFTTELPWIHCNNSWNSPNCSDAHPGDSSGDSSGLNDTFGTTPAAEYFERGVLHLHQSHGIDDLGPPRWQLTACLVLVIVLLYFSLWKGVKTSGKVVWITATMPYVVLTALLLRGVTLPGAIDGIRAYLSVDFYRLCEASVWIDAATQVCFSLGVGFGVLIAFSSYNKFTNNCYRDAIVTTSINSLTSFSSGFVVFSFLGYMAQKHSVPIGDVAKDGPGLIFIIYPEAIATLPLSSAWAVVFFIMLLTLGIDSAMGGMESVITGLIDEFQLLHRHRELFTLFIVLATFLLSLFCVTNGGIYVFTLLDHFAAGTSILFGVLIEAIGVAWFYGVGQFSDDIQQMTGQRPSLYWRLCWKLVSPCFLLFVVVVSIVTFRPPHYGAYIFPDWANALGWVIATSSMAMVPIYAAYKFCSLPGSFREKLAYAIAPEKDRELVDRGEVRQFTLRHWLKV
Data set [15] relates to mice. Briefly: Side effect scoring. Format: in vivo, mouse. Particulars: 250 mg/kg i.p.
The target of data set [16] is T1, hGlyT2^D633E. The data set is described as follows: Reversibility from inhibition. The class given is cell-based. Particulars: GlyT2^D633E.
Data set [17] has as its target hNET (Homo sapiens, UniProt P23975). The data set is described as follows: Cerep binding assay, displacement of 3H-nisoxetine. The note with it: 10 μM. In general terms: Loss of bound radioactivity is the signal in a displacement assay; it reports binding, not function.
Data set [18] relates to partial sciatic nerve ligation (PSNL) mice. The data set is described as follows: PSNL model, mechanical allodynia. The class given is in vivo, mouse. The note with it: 50 mg/kg i.p.
The test system of data set [19] is GlyT2. The note with it: read-out: IC50 for GlyT2; cited from earlier work.

hNET, sequence (P23975 whole entry): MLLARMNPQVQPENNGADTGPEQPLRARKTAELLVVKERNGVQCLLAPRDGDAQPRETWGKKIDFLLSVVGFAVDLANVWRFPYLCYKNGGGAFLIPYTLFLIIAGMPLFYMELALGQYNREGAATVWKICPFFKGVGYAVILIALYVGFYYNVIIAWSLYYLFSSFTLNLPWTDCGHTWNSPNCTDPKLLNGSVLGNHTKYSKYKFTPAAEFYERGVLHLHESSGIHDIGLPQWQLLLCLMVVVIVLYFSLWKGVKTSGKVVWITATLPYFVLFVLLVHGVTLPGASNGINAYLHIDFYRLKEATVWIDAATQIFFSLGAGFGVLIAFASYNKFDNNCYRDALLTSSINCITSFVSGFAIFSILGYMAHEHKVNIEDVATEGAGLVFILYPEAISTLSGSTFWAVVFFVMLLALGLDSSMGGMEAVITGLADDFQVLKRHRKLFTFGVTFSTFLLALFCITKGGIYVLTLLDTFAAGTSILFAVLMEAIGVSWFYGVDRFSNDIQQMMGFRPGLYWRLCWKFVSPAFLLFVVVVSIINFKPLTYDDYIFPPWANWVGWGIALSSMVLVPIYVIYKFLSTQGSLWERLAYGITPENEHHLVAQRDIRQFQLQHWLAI

In the case of `NCC1(CC(=O)O)CCCCC1` [Gabapentin, reference compound], the “reduction of cold allodynia vs vehicle” value in data set [1] (gabapentin 100 mg/kg) is reported as “significant at 1-6 hours”.

With `CN1CC[C@]23c4c5ccc(O)c4O[C@H]2[C@@H](O)C=C[C@H]3[C@H]1C5` [Morphine, reference compound], in [2] (morphine 10 mg/kg i.p.), the “conditioned place preference” value is recorded as “significant increase in preference for the paired chamber”.

`COc1cc(C(=O)NCC2(N(C)C)CCCC2)cc(OC)c1OCc1ccccc1` [ORG25543, 4-(benzyloxy)-N-{[1-(dimethylamino)cyclopentyl]methyl}−3,5-dimethoxybenzamide]: the “decrease in potency of inhibition vs WT” value in [3] is ~ 14 fold; in data set [5] (W215F mutation), “~ three-fold”. In data set [4] (hGlyT2^W215F), the “effect of mutation on washout” value was “significantly increased the rate of ORG25543 washout”. Moreover, in data set [6] (hGlyT2, washout 30 min), the “reversibility of inhibition” value is “prolonged inhibitory effects with minimal restoration of glycine-induced currents”. Besides, the “currents restored, % of pre-inhibitor levels” value in [6] (hGlyT2^WT, 30 minutes washout) is given as 12.5%. For the same compound, the “mechanical allodynia” value in [7] (50 mg/kg) was “reversed mechanical allodynia”. In addition, the “side effects” value in data set [7] (50 mg/kg) was “near-complete loss of rotarod performance, seizures and in one case, lethality”. Moreover, in data set [7], the “effects on inflammatory and acute nociceptive pain thresholds” value is “no effects on inflammatory and acute nociceptive pain thresholds”.

The term IC50 denotes the concentration at which inhibition is half-maximal. With `CN(C)C1(CNC(=O)c2ccc3c(c2)CCN3C(=O)c2ccccc2)CCOCC1` [RPI-GLYT2-82, 1-benzoyl-N-((4-(dimethylamino)tetrahydro-2H-pyran-4-yl)methyl)indoline-5-carboxamide], the “decrease in potency of inhibition vs WT” value in [3] was above 18 fold. The “washout” value in data set [4] (GlyT2^W215F) and in data set [16] was “almost immediate” each time. Besides, the “neuromotor effects / muscle weakness” value in data set [8] (50 mg/kg, rotarod, grip strength, sedation) is reported as “No deficits were observed; also recorded: not associated with adverse neuromotor effects or muscle weakness”. For the same compound, the “initial reduction in baseline rotarod performance” value in data set [8] (250 mg/kg i.p.) came out at 61%. Besides, in [9], the “Cu,b, calculated unbound concentration in brain” value was 597.89 nM. Besides, the “mechanism of inhibition” value in data set [10] was “non-competitive inhibitor”. Moreover, the “respiration” value is “did not change respiration frequency, minute volume (MVb), or tidal volume (TVb)” in [11] (50 mg/kg); “transient changes in respiratory frequency and MVb in the first hour, and TVb in the first 30 min” in [11] (250 mg/kg i.p.). For the same compound, the “conditioned place preference” value in [2] (50 and 150 mg/kg i.p.) is reported as “no significant preference”. Moreover, the IC50 in [5] was above 30 µM. Further, the “effect on GlyT1” value in data set [12] was “minimal effect on GlyT1”. For the same compound, the “efficacy against mechanical allodynia vs vehicle” value in data set [13] (50 mg/kg i.p.) was “significant at 2 and 3 hours post-injection compared to vehicle”; in [13] (100 mg/kg i.p.) it was “showed a similar trend at 2 and 3 hours”. For the same compound, the “anti-allodynia, time of maximum efficacy” value in [13] (von Frey, 50 and 100 mg/kg i.p.) was “maximum efficacy between 90 min and 3 hours post-administration”. For the same compound, the “time of peak anti-allodynia effects, cold allodynia” value in data set [1] (50 and 100 mg/kg i.p.) is at most 2 h. In addition, in [1] (50 and 100 mg/kg i.p.), the “reduction of cold allodynia vs vehicle” value is “significantly reduced cold allodynia between 0.5 and 6-hours postinjection compared to vehicle”. The “displacement of 3H-BTCP from hDAT / inhibition” value in data set [14] is ~ 20%. For the same compound, the “sedation” value in [15] was “transient sedation, which was most apparent in the first 15–30 minutes and fully recovered by 90 minutes”. For the same compound, the “displacement of 3H-nisoxetine from hNET / inhibition” value in data set [17] was below 5%. The “reduction of mechanical allodynia vs vehicle” value in data set [18] was “significant at 90 minutes and 2-hours post-injection compared to vehicle”.

As for `CCCCCCCC/C=C\CCCCCCCC(=O)N[C@H](CCCCN)C(=O)O` [oleoyl-D-lysine], the “effects on inflammatory and acute nociceptive pain thresholds” value in data set [7] was “no effects on inflammatory and acute nociceptive pain thresholds”.

For the compound `CCCCOc1c(OC)cc(C(=O)NCC2(N(C)C)CCOCC2)cc1OC` [opiranserin], the IC50 in [19] was 860 nM.
